These results are taken from US7468432B2, “Cobalamin conjugates useful as antitumor agents” (Mayo Foundation for Medical Education and Research, priority 1999, dated 2008).

Data set [1] relates to African green monkey (Vero) cells. The note with it: concentration level of 1600 μM; cited from earlier work.
The test system of the next data set is cells. The note with it: in vitro neutron radiation of cells grown in the presence of compound; cited from earlier work.
For a further data set, the system named is transcobalamin proteins. Description: modified unsaturated Vitamin B12 binding capacity (UBBC) assay. The arrangement: species or system human. The note with it: 0.4 ml patient serum treated with 4 μL analog (10 μg per ml normal saline), 20 minutes at room temperature; blocking of Co-57 cyanocobalamin binding; 5 patients, n=10. The protocol: In vitro biological activity of the carborane cyanocobalamin analogs. To assess the in vitro binding of the carborane cyanocobalamin (Example 1, CCC) and DTPA-aminopropylcobalamin (Example 3, DAPC) analogs to the transcobalamin proteins, the unsaturated Vitamin B12 binding capacity (UBBC) assay (see D. A. Collins and H. P. C. Hogenkamp, J. Nuclear Medicine, 1997, 38, 717-723) was performed. Serum was obtained from 5 patients being evaluated for pernicious anemia at the Mayo Clinic. The patients' serum first underwent a routine clinical UBBC as previously described. To determine if the CCC and DAPC analogs would inhibit Co-57 cyanocobalamin from binding to the transcobalamin proteins, the excess serum from the 5 patients underwent modified UBBC.
Specifically, under dim light, 0.4 ml serum was treated with 4 μL (concentration 10 μg CCC per ml normal saline) of the 2 CCC analogs, carborane-d-cyano-cobalamin and carborane-b-cyanocobalamin, and DAPC. The analogs were incubated for 20 minutes at room temperature with the patient's serum. Both the clinical run and the analog treated samples were assayed for UBBC as usual.
The percent PB of the analogs to transcobalamin protein was calculated as follows (PB=100−CCCUBBC cpm/clinical UBBC cpm×100). […]

Regarding `O=c1[nH]c(=O)n([C@H]2C[C@H](O)[C@@H](CO)O2)cc1B(O)O` [5-dihydroloxyboryl-2′-deoxyuridine], in data set [1], the cytotoxicity result is given as “not cytotoxic”. Besides, the “biological effect equivalent to a concentration of 10B” value with cells is ~6 μg ^10B/g. DTPA-aminopropylcarbalamin [DAPC]: in the data set on transcobalamin proteins, the “average percent binding (PB) of the analogs to transcobalamin protein” value stood at 98.21%.
